Test: xn = mol fraction of the nth substance listed
Settings: 101 kPa, Liquid, x1 = 0.423; for mass density: Buoyancy - hydrostatic balance

O=C([O-])[O-].[Na+].[Na+] [sodium carbonate] + [Cl-].[Na+]
Settings | mass density [kg/m3] | viscosity [mPa·s]
973 K | 1830 | 17.02
1023 K | 1810 | 9.285
1073 K | 1800 | 5.31
1123 K | 1760 | 2.468
1173 K | 1730 | 1.219
1223 K | 1720 | –
1273 K | 1680 | –

From the NIST ThermoML archive (doi:10.1016/j.tca.2014.07.002)
